In PMC6968712, “SPA: a peptide antagonist that acts as a cell-penetrating peptide for drug delivery” (Drug Delivery, 2019):
Where a SMILES comes first, the peptide text is derived from it. Where no end group is shown, it is not given here. [ ]: non-standard residue; d: D form.

How the values were obtained:
[1] = tested on: CHO cells; test: LDH leakage assay; format: cell-based; details: 1 h, 100% = 0.2% Triton X-100
Protocol: The LDH leakage was measured using the Cytotoxicity Detection Kit (Roche). CHO cells were seeded at 1 × 10^4 cells/well in 96-well plate 24 h before treatment. After treatment with SPA at various concentrations for 1 h, 40 μL medium was transferred to a 96-well plate and incubated for 15 min with 40 μL reaction mixture, followed by 20 μL stop solution. […] was measured using microplate reader (Thermo scientific) at 490 nm. Untreated cells were defined as no leakage and 100% leakage was defined as total LDH release by lysing cells in 0.2% Triton X-100.

[2] = Enzymatic stability in serum; format: in vitro ADME; details: 15 μL 10 mM peptide in 285 μL 100% mice serum, 37 °C, 0–3 h, RP-HPLC, triplicate
Protocol: (§1) The enzymatic stability of SPA toward trypsin and mice serum was determined following a procedure reported in our previous study (Song et al., [2013]). A portion of 15 μL peptide stock solution (10 mM) was added to 285 μL trypsin solution (10 μg/mL) or 100% serum. Incubations were carried out at 37 °C for 0, 0.5, 1, 2 and 3 h in triplicate. A portion of 40 μL aliquots were diluted with 80 μL water/acetonitrile (60:40 v/v) containing 1% TFA and analyzed by RP-HPLC (Waters). The peptides were eluted using a liner gradient of 5–95% acetonitrile in 0.1% trifluoroacetic acid at a flow rate of 1 mL/min within 30 min on a C18 column (Waters XBridge Columns, 10 μM, 4.6*250 mm). The remaining full-length peptide concentration was normalized with respect to the initial concentration.

[3] = tested on: CHO cells; test: MTT antiproliferative assay of SPA-CPT conjugate; format: cell-based; details: treated 1 h, washed, cultured 72 h
Protocol: CHO, MDA-MB-231and U251 cells were seeded at 5 × 10^3 cells/well in 96-well plates 24 h before treatment, respectively. […] After washing with medium to remove the remaining agents, the cells were cultured for 72 h and the antiproliferative effects of the relevant agents were determined by the MTT assay.

[4] = tested on: Erythrocytes; test: Hemolysis assay; format: cell-based; details: mice erythrocytes, even at 200 μM, 1 h, 37 °C
Protocol: Erythrocytes were obtained from freshly collected mice blood and resuspended in PBS to 4% (V/V). After 100 μL the erythrocyte suspension being seeded in 96-well plate, the cells were incubated with 100 μL peptides solution at different concentrations for 1 h at 37 °C. The plates were centrifuged at 1000 g for 10 min and the released hemoglobin was determined using microplate reader (Thermo scientific) at 450 nm. PBS and 0.1% Triton X-100 were used as agents for 0 and 100% hemolysis, respectively.

[5] = tested on: CHO cells; test: MTT cytotoxicity assay of SPA (24 h); format: cell-based; details: various concentrations
Protocol: Cells were treated with SPA at various concentrations for 24 h. The cytotoxicity of SPA was determined by MTT assay. The absorbance was determined using microplate reader (Thermo scientific) at 570 nm.

[6] = tested on: trypsin; test: Enzymatic stability toward trypsin; format: in vitro ADME; details: 15 μL 10 mM peptide in 285 μL trypsin solution (10 μg/mL), 37 °C, after incubation for 360 min as printed, RP-HPLC, triplicate
Protocol: as §1, with “Incubations were carried out at 37 °C for 0, 0.5, 1, 2 and 3 h in triplicate.” left out

[7] = tested on: CHO cells; test: Flow cytometry assay of cellular uptake; format: cell-based; details: 1 h
Protocol: CHO cells were treated with 10 μM FITC labeled peptides for 1 h, and then the cells were harvested and finally resuspended in PBS after washing twice with PBS. The fluorescence of cells was analyzed on a FACS Caliber. To explore the uptake mechanism of SPA, CHO cells were preincubated at 4 °C and then treated with 10 μM FITC-labeled SPA at 4 °C or 37 °C for 1 h. In experiments with chloroquine, CHO cells were incubated with FITC-labeled SPA and 100 μM chloroquine at 37 °C for 1 h. In experiments with endocytosis inhibitor, cells were pretreated with 10 μg/mL chlorpromazine, 50 μM amiloride or 5 mM methyl-β-cyclodextrin at 37 °C for 0.5 h and then treated with 10 μM FITC-labeled SPA for 1 h. Cells were harvested and analyzed by a FACS Caliber (BD).

[8] = RP-HPLC retention time as measure of peptide hydrophobicity; format: physicochemical; details: Table S1; chromatographic, C18 (Waters XBridge, 4.6*250 mm), linear gradient 5–95% acetonitrile in 0.1% trifluoroacetic acid within 30 min, 1 mL/min
Protocol: Purity analysis was checked by analytical RP-HPLC (Waters), and the peptides were eluted using a liner gradient of 5–95% acetonitrile in 0.1% trifluoroacetic acid at a flow rate of 1 mL/min within 30 min on a C18 column (Waters XBridge Columns, 10 μM, 4.6*250 mm). The retention time of each peptide was determined when the peak was at its maximum height.

CC(C)C[C@H](NC(=O)[C@H](CC(C)C)NC(=O)[C@@H](Cc1c[nH]c2ccccc12)NC(=O)[C@H](Cc1ccccc1)NC(=O)[C@@H](Cc1c[nH]c2ccccc12)NC(=O)[C@H](CCC(N)=O)NC(=O)[C@@H](Cc1c[nH]c2ccccc12)NC(=O)[C@@H]1CCCN1C(=O)[C@H](CCCCN)NC(=O)[C@@H]1CCCN1C(=O)[C@H](N)CCCN=C(N)N)C(N)=O [SPA, [D-Arg^1, D-Trp^5,7,9, Leu^11]Substance P] (H-[dR]PKP[dW]Q[dW]F[dW]LL-NH2)
LDH leakage ([1]; 160 μM): 35% | stability in serum (remaining full-length peptide) [2]: significantly greater stability in serum than L-SPA | cytotoxicity / antiproliferative effect (MTT) [3]: no notable cytotoxicity | hemolytic activity [4]: low hemolytic activity | cytotoxicity (MTT) [5]: low cytotoxicity | stability against trypsin (remaining full-length peptide) [6]: not hydrolyzed

CC[C@H](C)[C@H](NC(=O)CN)C(=O)NCC(=O)N[C@@H](C)C(=O)N[C@H](C(=O)N[C@@H](CC(C)C)C(=O)N[C@@H](CCCCN)C(=O)N[C@H](C(=O)N[C@@H](CC(C)C)C(=O)N[C@H](C(=O)N[C@H](C(=O)NCC(=O)N[C@@H](CC(C)C)C(=O)N1CCC[C@H]1C(=O)N[C@@H](C)C(=O)N[C@@H](CC(C)C)C(=O)N[C@H](C(=O)N[C@@H](CO)C(=O)N[C@@H](Cc1c[nH]c2ccccc12)C(=O)N[C@H](C(=O)N[C@@H](CCCCN)C(=O)N[C@@H](CCCNC(=N)N)C(=O)N[C@@H](CCCCN)C(=O)N[C@@H](CCCNC(=N)N)C(=O)N[C@@H](CCC(N)=O)C(=O)N[C@@H](CCC(N)=O)C(N)=O)[C@@H](C)CC)[C@@H](C)CC)[C@@H](C)O)[C@@H](C)O)C(C)C)C(C)C [melittin, reference compound]
LDH leakage ([1]; 50 μM (positive control)): ~100%

FITC-AHX-YGRKKRRQRRR-NH2 [FITC-TAT, FITC-labeled cell-penetrating peptide TAT used as uptake comparator, reference compound]
cellular uptake efficiency (mean fluorescence intensity) ([7]; 10 μM FITC labeled peptides, flow cytometry): cellular uptake efficiency of SPA was lower than that of TAT | retention time [8]: 16.0 min

FITC-AHX-rPKPwQwFwLL-NH2 [FITC-SPA, SPA labeled with FITC at the N-terminus via an aminohexanoic acid spacer]
mean fluorescence on cotreatment with chloroquine ([7]; 10 μM FITC-labeled SPA with 100 μM chloroquine, 37 °C): significantly increased | retention time [8]: 21.2 min

RPKPWQWFWLL-NH2 [L-SPA]
stability in serum (remaining full-length peptide) [2]: SPA exhibited significantly greater stability in serum than L-SPA | stability against trypsin (remaining full-length peptide) [6]: almost completely degraded
